Like-named read-outs stand apart in the source and are kept apart here.
What was measured:
Assay type in all cases: binding
[1] = molecular target: T1, HeLa cell extract proteins (Homo sapiens, UniProt P25788)
T1 construct: endogenous in cells; host or cells: HeLa cell extract
T1 sequence (P25788 1-255): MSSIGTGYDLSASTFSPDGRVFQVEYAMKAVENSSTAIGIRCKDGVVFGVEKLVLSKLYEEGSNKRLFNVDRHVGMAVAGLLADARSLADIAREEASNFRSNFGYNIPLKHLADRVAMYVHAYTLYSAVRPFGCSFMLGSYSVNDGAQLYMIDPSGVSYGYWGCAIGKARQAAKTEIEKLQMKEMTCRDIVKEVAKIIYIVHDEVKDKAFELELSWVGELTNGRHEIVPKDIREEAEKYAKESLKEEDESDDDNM

[2] = molecular target: T2, HeLa cell extract proteins (Homo sapiens, UniProt P35573)
T2 construct: endogenous in cells; host or cells: HeLa cell extract
T2 sequence (P35573 whole entry): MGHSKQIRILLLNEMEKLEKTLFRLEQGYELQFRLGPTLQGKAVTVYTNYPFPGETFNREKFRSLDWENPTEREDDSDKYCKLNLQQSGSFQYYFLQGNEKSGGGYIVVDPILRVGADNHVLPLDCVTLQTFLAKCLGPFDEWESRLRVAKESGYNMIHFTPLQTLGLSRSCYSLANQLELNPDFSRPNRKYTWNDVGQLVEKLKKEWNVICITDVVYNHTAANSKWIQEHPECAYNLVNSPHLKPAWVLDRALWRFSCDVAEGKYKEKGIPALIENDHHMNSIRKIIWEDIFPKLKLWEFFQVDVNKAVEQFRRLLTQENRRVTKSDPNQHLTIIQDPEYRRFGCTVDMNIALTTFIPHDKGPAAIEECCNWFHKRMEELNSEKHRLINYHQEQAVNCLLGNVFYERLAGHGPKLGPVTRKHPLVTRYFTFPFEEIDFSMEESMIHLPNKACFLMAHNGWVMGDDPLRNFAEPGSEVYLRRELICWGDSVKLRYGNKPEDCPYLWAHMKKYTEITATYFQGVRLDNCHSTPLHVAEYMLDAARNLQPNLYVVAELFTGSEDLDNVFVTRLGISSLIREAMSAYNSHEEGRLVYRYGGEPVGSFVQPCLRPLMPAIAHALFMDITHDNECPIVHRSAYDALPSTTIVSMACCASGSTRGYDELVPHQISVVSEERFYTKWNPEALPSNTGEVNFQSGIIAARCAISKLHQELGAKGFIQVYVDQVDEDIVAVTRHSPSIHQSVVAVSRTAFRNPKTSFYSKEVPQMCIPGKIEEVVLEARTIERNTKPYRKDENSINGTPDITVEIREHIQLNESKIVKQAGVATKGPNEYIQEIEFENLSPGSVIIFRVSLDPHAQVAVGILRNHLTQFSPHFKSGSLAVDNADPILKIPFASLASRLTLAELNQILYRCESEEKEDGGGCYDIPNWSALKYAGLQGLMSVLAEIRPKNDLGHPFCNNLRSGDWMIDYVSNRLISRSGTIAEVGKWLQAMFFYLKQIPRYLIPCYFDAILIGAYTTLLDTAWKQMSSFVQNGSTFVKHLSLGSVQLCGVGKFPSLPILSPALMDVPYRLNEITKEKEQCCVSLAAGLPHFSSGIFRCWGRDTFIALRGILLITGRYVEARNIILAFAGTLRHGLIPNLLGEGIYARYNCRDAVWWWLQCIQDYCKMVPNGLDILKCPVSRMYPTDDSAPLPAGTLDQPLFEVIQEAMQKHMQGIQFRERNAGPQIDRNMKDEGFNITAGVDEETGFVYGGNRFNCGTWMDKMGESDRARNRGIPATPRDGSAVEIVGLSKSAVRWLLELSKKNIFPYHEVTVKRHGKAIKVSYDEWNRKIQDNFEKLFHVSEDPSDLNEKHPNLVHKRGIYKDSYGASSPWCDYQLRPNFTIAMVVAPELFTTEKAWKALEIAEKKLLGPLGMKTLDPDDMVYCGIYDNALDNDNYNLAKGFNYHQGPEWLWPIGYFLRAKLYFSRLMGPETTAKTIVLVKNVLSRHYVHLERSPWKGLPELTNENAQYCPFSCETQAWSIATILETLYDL

[3] = molecular target: T3, HeLa cell extract proteins (Homo sapiens, UniProt A5YKK6)
T3 construct: endogenous in cells; host or cells: HeLa cell extract
T3 sequence (A5YKK6 whole entry): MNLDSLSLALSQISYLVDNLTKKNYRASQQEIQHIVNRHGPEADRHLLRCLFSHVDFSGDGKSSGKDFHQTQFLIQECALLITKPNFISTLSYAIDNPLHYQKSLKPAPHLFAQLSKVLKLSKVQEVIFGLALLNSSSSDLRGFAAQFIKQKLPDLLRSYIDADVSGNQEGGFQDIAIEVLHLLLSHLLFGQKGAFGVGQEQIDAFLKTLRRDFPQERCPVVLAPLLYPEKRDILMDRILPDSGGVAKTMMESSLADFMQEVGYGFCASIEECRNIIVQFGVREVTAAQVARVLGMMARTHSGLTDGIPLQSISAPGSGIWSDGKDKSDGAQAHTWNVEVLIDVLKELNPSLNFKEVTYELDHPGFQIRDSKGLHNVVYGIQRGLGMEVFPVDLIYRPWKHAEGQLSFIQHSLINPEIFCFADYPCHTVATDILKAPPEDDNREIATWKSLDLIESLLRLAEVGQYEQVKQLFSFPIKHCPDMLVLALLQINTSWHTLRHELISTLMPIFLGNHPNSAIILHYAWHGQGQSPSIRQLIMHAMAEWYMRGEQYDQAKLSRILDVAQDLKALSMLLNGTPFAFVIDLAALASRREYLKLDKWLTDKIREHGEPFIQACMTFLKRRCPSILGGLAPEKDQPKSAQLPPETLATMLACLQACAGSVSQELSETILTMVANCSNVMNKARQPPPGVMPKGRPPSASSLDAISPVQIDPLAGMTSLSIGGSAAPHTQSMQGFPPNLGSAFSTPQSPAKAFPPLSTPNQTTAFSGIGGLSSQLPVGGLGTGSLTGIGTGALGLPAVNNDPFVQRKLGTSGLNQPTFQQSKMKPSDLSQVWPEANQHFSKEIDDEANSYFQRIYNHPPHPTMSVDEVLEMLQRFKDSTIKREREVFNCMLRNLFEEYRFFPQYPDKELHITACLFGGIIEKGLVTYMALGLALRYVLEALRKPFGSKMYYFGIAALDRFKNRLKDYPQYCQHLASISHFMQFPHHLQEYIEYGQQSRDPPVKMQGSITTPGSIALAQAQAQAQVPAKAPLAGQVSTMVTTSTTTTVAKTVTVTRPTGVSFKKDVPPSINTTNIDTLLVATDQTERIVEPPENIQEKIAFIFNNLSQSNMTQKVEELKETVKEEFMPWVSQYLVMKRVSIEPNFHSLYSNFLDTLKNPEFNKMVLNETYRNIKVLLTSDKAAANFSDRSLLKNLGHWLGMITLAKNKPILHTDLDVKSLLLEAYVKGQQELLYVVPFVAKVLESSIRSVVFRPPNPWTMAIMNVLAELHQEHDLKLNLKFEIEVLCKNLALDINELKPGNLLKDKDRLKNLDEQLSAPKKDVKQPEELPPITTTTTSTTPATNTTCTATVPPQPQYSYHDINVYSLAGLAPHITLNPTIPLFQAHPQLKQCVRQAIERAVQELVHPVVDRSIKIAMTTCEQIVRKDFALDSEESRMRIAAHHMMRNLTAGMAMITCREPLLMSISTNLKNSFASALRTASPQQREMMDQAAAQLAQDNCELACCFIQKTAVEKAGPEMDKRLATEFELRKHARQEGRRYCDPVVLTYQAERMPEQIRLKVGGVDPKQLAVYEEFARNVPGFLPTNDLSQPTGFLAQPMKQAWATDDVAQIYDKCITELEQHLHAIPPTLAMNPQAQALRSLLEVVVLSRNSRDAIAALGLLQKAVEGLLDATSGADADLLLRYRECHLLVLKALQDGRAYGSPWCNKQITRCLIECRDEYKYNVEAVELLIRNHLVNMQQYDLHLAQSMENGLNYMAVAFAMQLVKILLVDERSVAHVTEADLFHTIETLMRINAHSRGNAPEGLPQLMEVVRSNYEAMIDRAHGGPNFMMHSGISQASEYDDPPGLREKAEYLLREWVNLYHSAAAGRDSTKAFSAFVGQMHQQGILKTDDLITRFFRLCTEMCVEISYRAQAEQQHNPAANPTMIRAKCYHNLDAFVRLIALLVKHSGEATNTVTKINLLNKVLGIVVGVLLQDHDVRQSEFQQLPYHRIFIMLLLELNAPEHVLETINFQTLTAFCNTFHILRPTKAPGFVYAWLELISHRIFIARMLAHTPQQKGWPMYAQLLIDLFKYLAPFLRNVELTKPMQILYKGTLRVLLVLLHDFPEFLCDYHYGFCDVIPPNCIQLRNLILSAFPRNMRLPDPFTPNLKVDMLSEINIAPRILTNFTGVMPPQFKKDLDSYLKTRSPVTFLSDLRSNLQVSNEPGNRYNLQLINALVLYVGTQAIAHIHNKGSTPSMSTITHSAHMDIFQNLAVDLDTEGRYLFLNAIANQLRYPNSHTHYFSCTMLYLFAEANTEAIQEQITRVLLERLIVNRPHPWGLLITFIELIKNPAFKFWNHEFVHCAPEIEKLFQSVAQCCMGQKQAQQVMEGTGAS

[4] = molecular target: T4, HeLa cell extract proteins (Homo sapiens, UniProt P00966)
T4 construct: endogenous in cells; host or cells: HeLa cell extract
T4 sequence (P00966 1-412): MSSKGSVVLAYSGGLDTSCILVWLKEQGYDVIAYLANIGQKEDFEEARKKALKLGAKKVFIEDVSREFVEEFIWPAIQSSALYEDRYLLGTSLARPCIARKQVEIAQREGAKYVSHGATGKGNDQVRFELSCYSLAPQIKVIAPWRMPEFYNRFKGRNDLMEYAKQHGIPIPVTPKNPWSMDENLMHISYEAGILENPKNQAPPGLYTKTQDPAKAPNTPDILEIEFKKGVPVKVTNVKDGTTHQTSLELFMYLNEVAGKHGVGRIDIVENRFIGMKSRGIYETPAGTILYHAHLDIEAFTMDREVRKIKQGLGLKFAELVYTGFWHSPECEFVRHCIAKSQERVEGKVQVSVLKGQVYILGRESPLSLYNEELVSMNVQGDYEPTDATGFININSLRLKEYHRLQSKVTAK

[5] = molecular target: T5, HeLa cell extract proteins (Homo sapiens, UniProt P50502)
T5 construct: endogenous in cells; host or cells: HeLa cell extract
T5 sequence (P50502 1-369): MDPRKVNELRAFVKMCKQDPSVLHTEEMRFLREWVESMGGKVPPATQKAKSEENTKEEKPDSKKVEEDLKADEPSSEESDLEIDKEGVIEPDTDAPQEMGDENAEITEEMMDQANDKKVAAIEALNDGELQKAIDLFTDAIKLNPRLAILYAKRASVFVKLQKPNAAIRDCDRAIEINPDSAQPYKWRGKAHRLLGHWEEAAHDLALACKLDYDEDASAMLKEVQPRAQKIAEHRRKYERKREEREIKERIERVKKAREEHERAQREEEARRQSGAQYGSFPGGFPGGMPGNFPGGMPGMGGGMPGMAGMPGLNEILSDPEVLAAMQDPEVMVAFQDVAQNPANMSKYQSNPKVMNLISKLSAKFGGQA

[6] = molecular target: T6, HeLa cell extract proteins (Homo sapiens, UniProt O95487)
T6 construct: endogenous in cells; host or cells: HeLa cell extract
T6 sequence (O95487 1-1268): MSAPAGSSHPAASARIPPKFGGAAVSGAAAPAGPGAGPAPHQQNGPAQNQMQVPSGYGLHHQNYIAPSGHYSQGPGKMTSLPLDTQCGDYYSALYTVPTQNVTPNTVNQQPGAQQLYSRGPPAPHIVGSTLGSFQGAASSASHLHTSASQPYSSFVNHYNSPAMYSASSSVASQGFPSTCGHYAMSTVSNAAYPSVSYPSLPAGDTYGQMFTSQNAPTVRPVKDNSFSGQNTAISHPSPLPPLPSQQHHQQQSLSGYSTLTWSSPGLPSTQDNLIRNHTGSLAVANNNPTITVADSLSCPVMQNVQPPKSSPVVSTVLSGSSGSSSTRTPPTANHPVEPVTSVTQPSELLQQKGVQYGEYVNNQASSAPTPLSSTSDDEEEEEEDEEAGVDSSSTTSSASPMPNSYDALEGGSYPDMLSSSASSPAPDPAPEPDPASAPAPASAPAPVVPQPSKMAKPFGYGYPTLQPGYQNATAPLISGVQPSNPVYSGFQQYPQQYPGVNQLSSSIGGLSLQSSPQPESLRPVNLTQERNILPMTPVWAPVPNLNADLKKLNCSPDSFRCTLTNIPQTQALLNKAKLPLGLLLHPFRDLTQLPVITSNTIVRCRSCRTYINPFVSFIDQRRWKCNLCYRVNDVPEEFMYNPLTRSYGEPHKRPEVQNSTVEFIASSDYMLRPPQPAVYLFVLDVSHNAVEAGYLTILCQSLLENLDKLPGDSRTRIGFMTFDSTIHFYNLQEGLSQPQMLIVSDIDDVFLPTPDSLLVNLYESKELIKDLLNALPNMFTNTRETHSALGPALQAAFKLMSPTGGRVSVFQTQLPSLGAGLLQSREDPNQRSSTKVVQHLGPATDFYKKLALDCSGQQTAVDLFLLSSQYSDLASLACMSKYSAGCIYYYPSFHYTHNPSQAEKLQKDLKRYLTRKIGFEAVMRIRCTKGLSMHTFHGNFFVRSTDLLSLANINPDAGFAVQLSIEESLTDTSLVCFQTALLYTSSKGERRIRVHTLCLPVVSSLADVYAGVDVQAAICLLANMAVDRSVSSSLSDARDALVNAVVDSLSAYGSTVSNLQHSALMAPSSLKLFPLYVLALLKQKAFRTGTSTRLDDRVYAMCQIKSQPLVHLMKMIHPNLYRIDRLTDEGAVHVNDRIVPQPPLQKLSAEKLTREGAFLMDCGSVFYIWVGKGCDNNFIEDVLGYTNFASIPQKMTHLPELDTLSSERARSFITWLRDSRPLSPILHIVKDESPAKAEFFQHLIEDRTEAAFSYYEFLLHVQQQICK

[7] = molecular target: T7, HeLa cell extract proteins (Homo sapiens, UniProt P07900)
T7 construct: endogenous in cells; host or cells: HeLa cell extract

[8] = HeLa, protein AGL (PUTATIVE UNCHA[…] AGL (FRAGMENT))
[9] = HeLa, protein ASS1 (ARGININOSUCCINATE SYNTHASE.)
[10] = HeLa, protein ST13 (HSC70-INTERACTING PROTEIN.)
[11] = HeLa, protein HSP90AA1 (HEAT SHOCK PROTEIN 90KDA ALPHA (CYTOSOLIC), CLASS A MEMBER 1 ISOFORM 1.)

| SMILES | fold changes relative to vehicle control ([1]; HeLa, captured protein PSMA3) | fold changes relative to vehicle control [2, 8] | fold changes relative to vehicle control ([3]; HeLa, captured protein CNOT1) | fold changes relative to vehicle control ([4]; HeLa, protein ASS1) | fold changes relative to vehicle control ([5]; protein ST13, HeLa) | fold changes relative to vehicle control ([6]; HeLa, captured protein SEC24B) | fold changes relative to vehicle control ([7]; HeLa, protein HSP90AA1) | fold changes relative to vehicle control ([1]; protein PSMA3, HeLa) | fold changes relative to vehicle control ([2]; HeLa, protein AGL) | fold changes relative to vehicle control ([3]; protein CNOT1, HeLa) | fold changes relative to vehicle control [5, 10] [fold] | fold changes relative to vehicle control ([6]; protein SEC24B, HeLa) | fold changes relative to vehicle control [7, 11] [fold] | also measured |
| --- | --- | --- | --- | --- | --- | --- | --- | --- | --- | --- | --- | --- | --- | --- |
| Nc1nc2c(c(=O)[nH]1)N(C=O)C(CNc1ccc(C(=O)N[C@@H](CCC(=O)O)C(=O)O)cc1)CN2 (stereo partly shown) [LEU, leucovorin] | 1.02 | 1.19 | 0.93 | 1.03 | 0.98 | 1.06 | 1.06 | – | – | – | – | – | – | – |
| NCCCNc1ccc(C(=O)NC(CCC(=O)O)C(=O)O)cc1 (stereo not shown) [compound 7] | 0.98 | 1.17 | 1.16 | 1.01 | 1.04 | 1.06 | 0.92 | – | – | – | – | – | – | – |
| CCCCCCOc1cccc(Cc2cnc(N)nc2N)c1 [compound 2] | – | – | – | – | – | – | – | 1.27 | 1.08 | 1.32 | 2.63 | 1.15 | 2.39 | fold changes relative to vehicle control [4, 9]: 2.2 fold |
| CCCCCCOc1ccc(Cc2cnc(N)nc2N)cc1 [compound 1] | – | – | – | – | – | – | – | 1.04 | 1.05 | 1.3 | 1.44 | 1.05 | 1.4 | fold changes relative to vehicle control [4, 9]: 1.53 fold |
| Nc1nc2cccc(-c3ccccc3)c2n1Cc1ccc(Cl)c(Cl)c1 [compound 3] | – | – | – | – | – | – | – | 0.86 | 1.13 | 1.37 | 1.09 | 1.01 | 0.94 | fold changes relative to vehicle control ([4]; HeLa, protein ASS1 (ARGININ[…].)): 0.97 fold |
| NCCOCCOCC(=O)Nc1nc2ncc(CNc3ccc(C(=O)NC(CCC(=O)O)C(=O)O)cc3)nc2c(=O)[nH]1 (stereo not shown) [compound 6] | 1.01 | 1.09 | 1.17 | 1.43 | 1.3 | 0.94 | 1.32 | – | – | – | – | – | – | – |
| Nc1nc2[nH]cc(CCc3ccc(C(=O)N[C@@H](CCC(=O)O)C(=O)O)cc3)c2c(=O)[nH]1 [PTX, pemetrexed] | – | – | – | – | – | – | – | – | – | – | – | – | – | fold changes relative to vehicle control [1]: 0.99; fold changes relative to vehicle control [2]: 1.1; fold changes relative to vehicle control [3]: 1; fold changes relative to vehicle control [4]: 1.23; fold changes relative to vehicle control [5]: 1.12; fold changes relative to vehicle control [6]: 0.94; fold changes relative to vehicle control [7]: 1.13 |
